For data set [1], the system named is Aspergillus niger and Aspergillus flavus. In words: Antifungal activity. Conditions: in words; for Antifungal activity: dose not given. It counts as cell-based. How it is done: (§1) Sulfur compounds were tested for antifungal activity against pure cultures of Aspergillus niger and Aspergillus flavus supplied by Ward's Natural Science Ltd (St. Catharines, Ontario, Canada). They were maintained on Sabouraud Dextrose Agar.
(§2) For the test, 6 agar plugs (5 mm diameter) were cut from a 5-8 day old colony and homogenized in distilled, sterilized water (2 ml). A portion of this suspension (0.5 ml) was transferred aseptically to a Petri plate with Sabouraud Dextrose Agar (15 ml) and spread evenly over the entire surface. Each plate was supplied with four evenly spaced paper disks (7 mm, Whatman Number 1 filter paper) containing the test compound (0, 25, 50 and 100 μg respectively). Each test compound was applied to the disks as a solution (50 mg compound/10 ml acetone). Control disks were treated with neat acetone (20 μl). Test plates with fungal homogenates and disks were incubated at 18-20° C. for 2 days. For each test four replicate plates were used. The diameter of the clear zone surrounding the disk was taken as the indicator of antifungal activity.

Data set [2] relates to Aspergillus flavus. Description: Antifungal paper disk test, diameter of clear zone. Conditions: for zone of inhibition at 100 µg/disc: read-out: Diameter (mm) of clear Zone A. flavus. Format: cell-based. How it is done: as §1
as §2, with “Each plate was supplied with four evenly spaced paper disks (7 mm, Whatman Number 1 filter paper) containing the test compound (0, 25, 50 and 100 μg respectively).” left out

For data set [3], the system named is Aspergillus niger. Description: Antifungal paper disk test, diameter of clear zone. It counts as cell-based. The following applies: for zone of inhibition at 100 µg/disc: read-out: Diameter (mm) of clear Zone A. niger. As to the method: as §1
as §2, with “Each plate was supplied with four evenly spaced paper disks (7 mm, Whatman Number 1 filter paper) containing the test compound (0, 25, 50 and 100 μg respectively).” left out

Data set [4] deals with Normal bone marrow (mononucleated, T-cell depleted). Description: MTT assay. Format: cell-based. Conditions: Normal bone marrow, 48 h, read-out: MTT50. How it is done:
(§3) All cell lines were assayed as asynchronously growing cells. Leukemic cell lines, OCI-AML-2, OCI-AML-3 (referred to hereafter as AML-2 and AML-3, respectively), NB-4, KK, B1, G2, and W1 were cultured in alpha-minimal essential medium (α-MEM) (Princess Margaret Hospital Media Services) supplemented with 10% fetal bovine serum (FBS) (Sigma, St. Louis, Mo.). Non-transformed, diploid fibroblast lines WI38 and IMR90, were cultured in α-MEM and MEM F-15, respectively supplemented with 10% FBS. Media for IMR90 cells was also supplemented with 1.5 g/L bicarbonate and 1 mM pyruvate. Breast tumour cell lines, MDA-231, SK-BR-3, MCF-7, ZR-751, and melanoma tumour cell lines, WM9, WM983, WM793, 1232, were grown in α-MEM supplemented with 10% fetal bovine serum. Prostate tumour cell lines, DU145 and PC-3, were grown in RPMI 1640 media supplemented with 10% FBS. All cell lines were cultured in the presence of penicillin/streptomycin. Mononucleated cells were isolated from normal bone marrow using Ficoll hypaque and then T-cell depleted. T-cell depletion was performed by incubating the mononucleated bone marrow cells in α-MEM at a concentration of 2×10^7 cells/mL with 10% absor FBS and 10% (v/v) sheep red blood cells for 4 to 16 h. Absor FBS was prepared beforehand by heating FBS at 56° C. for 1 h, incubating with sheep red blood cells at 0.5% (v/v) for 1 h and then filtering the FBS with a […]. The T-cell depleted, mononucleated cells were recovered using Ficoll hypaque and were maintained in α-MEM supplemented with 20% FBS and 10% 5637 ? nditioned media. 5637 conditioned media ? s previously harvested from confluent 5637 cells after a 3 day incubation. Normal bone marrow from bone marrow transplant donor was collected following informed consent according to institutional guidelines.
(§4) Approximately 20 mg of each compound was dissolved in 5 mL of ACS grade acetone (Sigma) using a 5 mL volumetric flask. Stock solutions of the compounds were stored in the dark at −20° C. Compounds were diluted prior to each experiment.
(§5) Adherent cells were seeded at 67×10^3 cells/mL in a 96 well plate (Falcon, Mississauga, Ontario) the day prior to exposure to compound. Suspension cells were seeded at 27×10^4 cells/mL in a 96 well plate the day of exposure to compound. Mononucleated, T-cell depleted normal bone marrow cells were seeded at 67×10^4 cells/mL in a 96 well plate the day of exposure to compound. Compounds and solvent control were added to cells and assayed in triplicate or sextuplet. Following 48 h of incubation at 37° C. with 5% CO2, 40 μL of a 5 mg/mL solution of 3-[4,5-dimethylthiazol-2-yl]-2,5-diphenyltetrazolium bromide (MTT) substrate (Sigma) in Dulbecco's phosphate-buffered saline (D-PBS) was added. After 4 h of incubation at 37° C. with 5% CO2, the resulting violet formazan precipitate was solubilized by the addition of 80 μL of a 0.01 M HCI, 10% sodium dodecyl sulfate (SDS; Sigma) solution overnight at 37° C. with 5% CO2. The plates were then analyzed using the BioRad Benchmark Microplate Reader (BioRad Laboratories, Hercules, Calif.) at 570 nm to determine the optical density of the samples. MTT data was analyzed using Prism 3.0 (GraphPad Software, Inc., San Diego, Calif.) by the Chou-Talalay method. MTT graphs shown are a representative experiment.
(§6) Adherent cells were seeded at 67×10^3 cells/mL in a 96 well plate (Falcon, Mississauga, Ontario) the day prior to exposure to compound. Suspension cells were seeded at 27×10^4 cells/mL in a 96 well plate the day of exposure to compound. Mononucleated, T-cell depleted normal bone marrow cells were seeded at 67×10^4 cells/mL in a 96 well plate the day of exposure to compound. Compounds and solvent control were added to cells and assayed in triplicate or sextuplet. […]

The subject of data set [5] is KK leukemic cell line. Description: MTT assay. It counts as cell-based, human. The following applies: KK, 48 h, read-out: MTT50. How it is done:
as §3, §4, §5, §6

Data set [6] relates to NB-4 leukemic cell line. In words: MTT assay. The following applies: NB-4, 48 h, read-out: MTT50. It counts as cell-based, human. As to the method: as §3, §4, §5, §6
Data set [7] concerns B1 leukemic cell line. In words: MTT assay. It counts as cell-based, human. Conditions: B1, 48 h, read-out: MTT50. As to the method:
as §3, §4, §5, §6

In data set [8] the test system is WI38 non-transformed diploid fibroblasts. In words: MTT assay. It counts as cell-based, human. Conditions: for IC50: WI38 (normal), 48 h, read-out: MTT50. How it is done:
as §3, §4, §5, §6

Data set [9] deals with AML-3 leukemic cell line. In words: MTT assay. It counts as cell-based, human. As to the method:
as §3, §4, §5, §6

Data set [10] relates to KK leukemic cell line. In words: Fixed propidium iodide staining, flow cytometry. Format: cell-based, human. Conditions: dose 129.6 uM (ug/mL), 48 h. How it is done:
(§7) Adherent cell lines were plated at 35×10^4 cells/60 cm^2 dish the day before exposure to compound. Suspension cells were seeded at 25×10^4 cells/mL in a 6 well dish (Falcon) the day of exposure to compound. Mononucleated, T-cell depleted normal bone marrow cells were seeded at 50×10^4 cells/mL in a 6 well dish the day of exposure to compound. Cells were exposed to solvent control or approximate MTT50 and MTT30 concentrations of the compound. After 48 h of exposure to the compound, cells were harvested, fixed in 80% ethanol for 1 h on ice and labeled with 50 μg/mL propidium iodide (Sigma). Approximately 10^6 cells were analyzed using a XL-MCL flow cytometer (Coulter Corporation, Miami, Fla.) and a FACScalibar cytometer (Becton Dickinson, San Jose, Calif.). Profiles shown are a representative.
as §7, with “cm2” for “cm^2”, “concentrations.” for “concentrations of the compound.”, “representative. Cell viability counts and Pi staining were performed as previously described (Dimitroulakos, J, Nohynek, D, Backway, K L, Hedley, D W, Yeger, H, Freedman, M H, Minden, M D and Penn, L Z: Increased sensitivity of acute myeloid leukemias to lovastatin-induced apoptosis: A potential therapeutic approach. Blood 93: 1308-18, 1999).” for “representative.”

The subject of data set [11] is AML-3 leukemic cell line. In words: Fixed propidium iodide staining, flow cytometry. It counts as cell-based, human. The following applies: dose 129.6 uM (ug/mL), 48 h. As to the method:
as §7
as §7, with “cm2” for “cm^2”, “concentrations.” for “concentrations of the compound.”, “representative. Cell viability counts and Pi staining were performed as previously described (Dimitroulakos, J, Nohynek, D, Backway, K L, Hedley, D W, Yeger, H, Freedman, M H, Minden, M D and Penn, L Z: Increased sensitivity of acute myeloid leukemias to lovastatin-induced apoptosis: A potential therapeutic approach. Blood 93: 1308-18, 1999).” for “representative.”

The subject of data set [12] is G2 leukemic cell line. Description: MTT assay. It counts as cell-based, human. The following applies: 48 h, read-out: MTT50. How it is done:
as §3, §4, §5, §6

Where [13] appears, read: Aspergillus flavus, 100 μg/disk, acetone.
The mark [14] stands for this setting: Aspergillus niger, 100 μg/disk, acetone.
Where [15] appears, read: Homo sapiens, AML3, 48 h, AML-3, read-out: MTT50.
Setting [16] is: 0.25 μg/disk, Appl'n Solvent Acetone.

“And” between values parts separate entries of the source, which are not always exact repeats. Equal entries are not always repeated. Where two headings read alike, the source gives them in different places.

Regarding `CSSc1ccccc1` [Compound C6H5SSCH3, phenyl methyl disulphide], in data set [1] (100 μg/disk), the “Antifungal activity / fungitoxicity” value was “no observable fungitoxicity”. In addition, the zone of inhibition at 100 µg/disc in data set [2] (setting [13]) and in data set [3] (setting [14]) was 0 mm each time.

With `COC(=O)CSSCC(=O)OC` [O, dimethyl 3,4-dithiaadipate], the IC50 in data set [4] (T-cell) was greater than 100 µM; in [5] (Homo sapiens) it was 96.9 µM; in [6] (Homo sapiens) it was 62.9 µM; in [7] (Homo sapiens), 57.4 µM; in data set [8] (Homo sapiens, WI-38, 48 h) it was 73.9 µM; in [9] (AML-3, 48 h, read-out: MTT50) it was 44.1 µM. In [9] (setting [15]), the IC50 worked out at 55.8 µM. The zone of inhibition at 100 µg/disc in [2] (setting [13]) and in data set [3] (setting [14]) was 0 mm throughout.

As for `CS(=O)(=O)Oc1ccc([N+](=O)[O-])cc1` [p-O2N(C6H4)OSO2CH3, p-nitrophenyl methanesulfonate], the zone of inhibition at 100 µg/disc in data set [2] (setting [13]) and in data set [3] (setting [14]) was 0 mm in each case.

“Methyl methanethiosulfonate [CH3SO2SCH3]”: the Antifungal activity result in [1] is listed as “effective against only one of the test fungi”. Moreover, in [2] (100 μg/disk, acetone), the “Diameter (mm) of clear Zone A. flavus” value is on record as 0 mm. Moreover, the “Diameter (mm) of clear Zone A. niger” value in data set [3] (100 μg/disk, acetone) stood at 3.3 mm.

For `CSCSCSC` [J, 2,4,6-trithiaheptane], the IC50 in data set [4] (T-cell) is greater than 162 µM; in [5] (Homo sapiens), greater than 162 µM; in data set [8] (Homo sapiens, WI-38, 48 h), greater than 162 µM; in data set [9] (setting [15]), greater than 162 µM. The Antifungal activity result in [1] was “do not possess antiproliferative activity on either fungal or mammalian cells”. Further, the “% pre-G1 (Fixed PI)” value in data set [10] stood at 2.6%; in data set [11], 0.2%. For the same compound, the zone of inhibition at 100 µg/disc in data set [2] (setting [13]) and in [3] (setting [14]) was 0 mm each time. For the same compound, in data set [8] (in words), the “Viability of non-transformed human WI38 fibroblasts following exposure” value was “not affected”.

As to `CCCCCSSCS(C)(=O)=O` [K], the IC50 is 22 µM in data set [4]; 6.6 µM in [5]; 6.61 µM and 5.8 µM in data set [12]; 6.36 µM and 7.8 µM in data set [6]; 6.07 µM in [7]; 19 µM in data set [8]. Also, in data set [9] (AML-3, 48 h, read-out: MTT50), the IC50 worked out at 4.6 µM.

Regarding `CCS(=O)(=O)SC` [CH3CH2SO2SCH3, Methyl Ethanethiosulfonate], the “Diameter (mm) of clear Zone A. flavus” value in data set [2] (50 μg/disk, acetone) was determined as 1.3 mm. In addition, the “Diameter (mm) of clear Zone A. niger” value in data set [3] (50 μg/disk, acetone) was determined as 2.0 mm.

`CS(=O)(=O)Oc1ccc(S(C)(=O)=O)cc1` [p-CH3SO2(C6H4)OSO2CH3, p-methylsulfonylphenyl methanesulfonate]: the zone of inhibition at 100 µg/disc in [2] (setting [13]) and in [3] (setting [14]) was 0 mm throughout.

With `CSSCOC(=O)c1ccccc1` [CH3SSCH2OC(O)Ph, 2,3-dithiabutyl benzoate], the zone of inhibition at 25 µg/disc in data set [2] (Aspergillus flavus, 25 μg/disk, acetone) amounted to 8.4 mm; in data set [3] (Aspergillus niger, 25 μg/disk, acetone), 6.1 mm.

For the compound `CSSC` [CH3SSCH3, dimethyl disulphide], in data set [1], the Antifungal activity entry is “no antifungal behaviour”. Also, the “Diameter (mm) of clear Zone A. flavus” value in data set [2] (100 μg/disk, acetone) is given as 0 mm. Further, the “Diameter (mm) of clear Zone A. niger” value in data set [3] (100 μg/disk, acetone) was 0 mm.

On to `CCSSCS(C)(=O)=O` [CH3SO2CH2SSCH2CH3, 2,4,5-trithiaheptane 2,2,-dioxide], for which, in [2] (25 μg/disk, acetone), the “Diameter (mm) of clear Zone A. flavus” value is on record as 3.3 mm. For the same compound, the “Diameter (mm) of clear Zone A. niger” value in [3] (25 μg/disk, acetone) stood at 4.8 mm.

As to `CSCSSCSC` [(CH3SCH2S)2, reference compound], in [2] (100 μg/disk, acetone), the “Diameter (mm) of clear Zone A. flavus” value stood at 2.3 mm. Besides, the “Diameter (mm) of clear Zone A. niger” value in data set [3] (100 μg/disk, acetone) was found to be 2.5 mm.

Take “1-p-toluenesulfonyl-4-propionoxy-2,3-dithiabutane [C2H5OC(O)CH2SSCH2SO2(C6H4)—p-CH3]”: in data set [2] (setting [16]), the “Diameter (mm) of clear Zone A. flavus” value is recorded as 5.2 mm. For the same compound, the “Diameter (mm) of clear Zone A. niger” value in data set [3] (setting [16]) stood at 8.5 mm.

(Values after patent US20030220524A1, “Sulfur containing compounds” (priority 2000, published 2003).)
